The results in this text go back to the supplement of paper PMC10307832.

Test in all cases: relative viability (nuclei count vs DMSO), 5 days (fraction); higher = more cells survive
Compound in one experiment: Cn1c(=O)n(-c2ccc(C(C)(C)C#N)cc2)c2c3cc(-c4cnc5ccccc5c4)ccc3ncc21 [Dactolisib]
In short, it runs like this:
(§1)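 Acceptance criteria were a control CV below 25% and at least one doubling per plate. Lung cancer cell lines in 1536-well plates got five library-drug doses (not always all listed) √10 apart by pinning and were left 5 days with no medium change. Viability divides treated-well nuclei by vehicle-well nuclei and is the median across plates. Nuclei were counted by MetaXpress from 4× Hoechst images.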

Compound in another experiment: C1CCC(CC1)N(CCNCCC2=C3C(=C(C=C2)O)NC(=O)CO3)C(=O)CCNCCC4=CC(=C(C=C4)Cl)Cl [AZ505]
The procedure, abridged: as §1

Compound in the experiment “AZ505 + Foretinib”: C1CCC(CC1)N(CCNCCC2=C3C(=C(C=C2)O)NC(=O)CO3)C(=O)CCNCCC4=CC(=C(C=C4)Cl)Cl [AZ505] + COc1cc2c(Oc3ccc(NC(=O)C4(C(=O)Nc5ccc(F)cc5)CC4)cc3F)ccnc2cc1OCCCN1CCOCC1 [Foretinib] (partner 0.25 µM)
The procedure, abridged: (§2)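 Lung cancer cell lines were seeded in 1536-well plates and dosed by pin tool the next day, with either a single drug or a fixed anchor-drug dose combined with five library-drug doses (not always all listed) spaced in √10 steps. Five days later, one step fixed the cells and stained their nuclei (final 0.05% Triton X-100, 1% formaldehyde, 1 ug/ml Hoechst), and nuclei were counted on 4× images. Relative viability is the nuclei count in treated wells divided by the count in vehicle wells, and each value is the median of duplicate plates.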

Compound in the experiment “AZ505 + Trametinib”: C1CCC(CC1)N(CCNCCC2=C3C(=C(C=C2)O)NC(=O)CO3)C(=O)CCNCCC4=CC(=C(C=C4)Cl)Cl [AZ505] + CC(=O)Nc1cccc(-n2c(=O)n(C3CC3)c(=O)c3c(Nc4ccc(I)cc4F)n(C)c(=O)c(C)c32)c1 [Trametinib] (partner 0.02 µM)
In short, it runs like this: as §2

UMC-11: the relative viability with Dactolisib (0.002 µM) is 0.96; with Dactolisib (0.006325 µM), 0.836; with Dactolisib (0.02 µM) it was 0.77; in the experiment with Dactolisib (0.06325 µM) it was 0.398; with Dactolisib (0.2 µM), 0.273; in the experiment with AZ505 (0.08 µM), 0.887. Besides, the relative viability is 0.994 with AZ505 (0.253 µM); 0.94 with AZ505 (0.8 µM); 1.07 with AZ505 (2.53 µM); 1.03 with AZ505 (8 µM); 0.975 in the experiment with AZ505 + Foretinib (first compound 0.08 µM); 1.15 in the experiment with AZ505 + Foretinib (first compound 0.253 µM). In addition, the relative viability in the experiment with AZ505 + Foretinib (first compound 0.8 µM) came out at 0.922; with AZ505 + Foretinib (first compound 2.53 µM) it was 1.09; with AZ505 + Foretinib (first compound 8 µM) it was 1.11; in the experiment with AZ505 + Trametinib (first compound 0.08 µM), 0.588; with AZ505 + Trametinib (first compound 0.253 µM), 0.643; in the experiment with AZ505 + Trametinib (first compound 0.8 µM) it was 0.697. Besides, the relative viability was 0.789 with AZ505 + Trametinib (first compound 2.53 µM) and 0.672 in the experiment with AZ505 + Trametinib (first compound 8 µM).
